According to PMC12534982 (Journal of Experimental & Clinical Cancer Research : CR, 2025):

Columns and labels:
SW620 cells = assay: Intracellular nucleotides, orotate and DHO by HPLC–MS/MS; format: cell-based, human; details: 25 µM, 24 h
Experimental: Cancer cells (2.2 × 10^6) were cultured in 100-mm Petri dishes and treated with DMSO or NK-A 17E-233I (25 µM) for 24 h. Nucleotides and related compounds were extracted from cell pellets by treatment with 0.5 M trichloroacetic acid (TCA) followed by neutralization and solvent evaporation as detailed in [30]. Dry extracts were stored at -70°C until further analysis. Protein pellets sedimented after TCA precipitation were re-dissolved in 1 mL of 100 mM NaOH, 5% SDS by incubation at 95 °C for 5 min, followed by complete re-dissolution through several syringe strokes with a 23G needle. The concentration of the re-dissolved protein was quantified using the Pierce™ BCA Protein Assay Kit (Thermo Fisher Scientific), with the amount of the metabolites referenced to protein content.
On the day of metabolite analysis, the dry extracts were re-dissolved in 150 µL of water. Nucleotides, DHO and orotate concentrations were determined using HPLC–MS/MS using Acquity UPLC-Xevo™ TQ Mass Spectrometer (Waters, MA, USA), following the methodology described in [30]. The m/z transitions for DHO and orotate were 156.87 > 113.09 and 154.90 > 111.00, respectively. The identification of all compounds was based on retention time and specific ion transitions. The calibration curves generated with aqueous standards were processed concurrently, and the concentrations were derived from peak area interpolation using TargetLynx software (Waters, MA, USA).

[1] = tested on: colorectal cancer cell lines; assay: DNA fiber assays; format: cell-based, human
Experimental: Cancer cells were pulse-labeled with 20 µM iododeoxyuridine (IdU) in the dark at 37 °C for 20 min. Subsequently, the cells were washed twice with PBS and then pulse-labeled with 200 µM chlorodeoxyuridine (CldU) in the presence or absence of NK-A 17E-233I (25 µM) in the dark at 37 °C for 1 h. To assess fork restart in cancer cells following treatment, cells were pulse-labeled with 20 µM IdU for 10 min, after which NK-A 17E-233I (25 µM) was either added or no treatment was administered, followed by an additional 1 h of incubation. The cells were then washed twice with PBS and pulse-labeled with 200 µM CldU for 30 min. Following the labeling procedure, cells were washed twice with PBS, scrapped into PBS containing 0.1% Bovine Serum Albumin (BSA), pelleted, and resuspended in PBS with 0.1% BSA at a final concentration of 1.5 × 10^3 cells/µL. A volume of 2.5 µL of the cell suspension was spotted onto a positively charged slide and lysed with 7.5 µL of a spreading buffer (200 mM Tris–HCl, pH 7.5; 50 mM EDTA; 0.5% SDS) at room temperature for 8 min. The slides were then tilted at 45 ° to facilitate DNA spreading. After air-drying, the slides were fixed with ice-cold methanol/acetic acid (3:1) for 5 min, air-dried again, and stored at 4 °C.
The slides were rehydrated with PBS, denatured with 2.5 M HCl for 1 h, washed twice with PBS, and blocked with a blocking buffer (3% BSA; 0.1% Triton X-100 in PBS) for 40 min. Subsequently, the slides were incubated with a primary antibody mixture, including mouse anti-5-Bromo-2'-Deoxyuridine (anti-BrdU) recognizing IdU (#347580; Becton Dickinson, dilution 1:250) and rat anti-BrdU recognizing CldU (#6326; Abcam, dilution 1:250), diluted in a blocking buffer within a dark humid chamber at room temperature for 2.5 h.
For silencing, siNT (non-target, D-001810–10-20 On-TARGET plus Non-targeting pool, Dharmacon) (Horizon Discovery, Waterbeach, UK) and siPOLD2 (Smart pool, ON-TARGETplus Human POLD2 (5425) siRNA oligos directed against human POLD2), were used to transfect cells using RNAiMax Lipofectamine Reagent Mix (Life Technologies) according to the manufacturer’s protocol. 48 h post-transfection, the cells were harvested to evaluate the efficiency of gene silencing, which was estimated to be approximately 90% based on western blot analysis, for further experimental applications.
Afterwards, the slides were washed three times with PBS for 5 min each and incubated with secondary antibodies, anti-mouse Alexa Fluor 594 and anti-rat Alexa Fluor 488 (#A11005 and #A11006, respectively; Invitrogen, dilution 1:250), in a blocking buffer at room temperature in a dark humid chamber for 1 h. After three additional washes with PBS and air-drying, the slides were mounted with ProLong Gold Antifade Reagent (#P36930; Invitrogen) and stored at 4 °C until imaging. Images were acquired using an AF6000 Leica Fluorescence microscope equipped with an HCX PL APO 63x (NA = 1.4) oil objective. ImageJ/Fiji software was utilized to measure the fibers with the segmented line tool.

[2] = median [Minimum – Maximum], five experiments
[3] = median [Minimum – Maximum], four experiments

COc1cc(C)c(Oc2cc(C)cc(O)c2O)c(O)c1 [NK-A 17E-233I]
levels of purine nucleotides (SW620 cells): remained unchanged | ADP amount (SW620 cells; [2]): 7,917 [5,048–9,389] pmoles/mg protein | AMP + ADP + ATP amount (SW620 cells; [2]): 26,257 [24,352 – 27,848] pmoles/mg protein | AMP amount (SW620 cells; [2]): 961 [405–2,739] pmoles/mg protein | ATP amount (SW620 cells; [2]): 15,907 [14,173–21,694] pmoles/mg protein | CDP amount (SW620 cells; [2]): 351 [143–504] pmoles/mg protein | CMP + CDP + CTP amount (SW620 cells; [2]): 6,327 [6,028 – 10,285] pmoles/mg protein | CMP amount (SW620 cells; [2]): 263 [220–707] pmoles/mg protein | CTP amount (SW620 cells; [2]): 5,801 [5,142–9,519] pmoles/mg protein | GDP amount (SW620 cells; [2]): 1,339 [1,008–1,566] pmoles/mg protein | GMP + GDP + GTP amount (SW620 cells; [2]): 5,228 [4,902 – 7,797] pmoles/mg protein | GTP amount (SW620 cells; [2]): 3,565 [3,407–6,418] pmoles/mg protein | UDP amount (SW620 cells; [2]): 927 [867–1,161] pmoles/mg protein | UMP amount (SW620 cells; [2]): 335 [81–424] pmoles/mg protein | UTP amount (SW620 cells; [2]): 4,013 [3,397–6,651] pmoles/mg protein | GMP amount (SW620 cells; median [Minimum – Maximum], five experiments, undetectable treated as zero): 156 [0–268] pmoles/mg protein | DHO amount (SW620 cells; [3]): 26.5 [18.3–228.5] pmoles/mg protein | Orotate amount (SW620 cells; [3]): 70.5 [61.7–137.1] pmoles/mg protein | speed of replication forks (CldU tracks) ([1]; 25 µM, 1 h): significantly reduced | rescue of replication fork speed by physiological uridine ([1]; 25 µM, uridine 10 µM): did not demonstrate any discernible rescue | rescue of DNA-damaging effects by excess uridine ([1]; 25 µM, uridine 200 µM): rescued the DNA-damaging effects | replication fork progression after washout (fork restart) ([1]; LS174T, 25 µM, 1 h then washout): continued to demonstrate a diminished progression rate | speed of replication forks (CldU tract length) ([1]; SW620, 25 µM, 1 h): significantly diminished
